Test results: patent EP0403301B1, “Aerosols of pyrido[1,2-a]pyrimidine compounds” (TOKYO TANABE COMPANY LIMITED, priority 1989, dated 1990)
In brackets after ≈: the same amount, converted by molar mass.

Tests used:
Type in all cases: physicochemical
[1] = solubility in propellants and in propellant/solubilizing agent mixtures; settings: Freon 11, 12, 13, 21, 22, 113, 114, 115, 123, 124, 132b, 133a, 134a, 141b, 142b, 152a, 225ca, 225cb, C318
Experimental: (§1) Inhalations for use as antiallergic agents include aqueous solution type aerosol inhalations, solution type aerosol inhalations and suspension type aerosol inhalations. The solubilities of pyrido[1,2-a]pyrimidine compounds in water are very low. For example, the solubility of 9-[(4-acetyl-3-hydroxy-2-n-propylphenoxy)methyl]-3-(1H-tetrazol-5-yl)-4H-pyrido[1,2-a]pyrimidin-4-one (hereinafter referred to as AS-35) in water is as low as 0.4 µg/ml. Accordingly, it would be impractical to prepare an aqueous solution type aerosol inhalation of AS-35, because this would require massive containers and devices. Moreover, in order to prepare a solution type aerosol inhalation of a pyrido[1,2-a]pyrimidine compound, it must be dissolved in a propellant or a mixture of a propellant and a commonly used solubilizing agent. […] Moreover, AS-35 is also insoluble in mixtures of such propellants and commonly used solubilizing agents. Thus, it is impossible to prepare a solution type aerosol inhalation of AS-35.

solubility in water = test: solubility in water
Experimental: as §1

[2] = dispersibility and cohesiveness of fine particles in propellant with dispersant (naked eye); settings: AS-148 in place of AS-35
Experimental: First of all, a series of experiments were carried out to evaluate the effectiveness of conventional dispersants. More specifically, various ester forms of non-ionic surfactants which are non-irritating to the site of application were tested by using an aerosol composition consisting of finely powdered AS-35 and a propellant comprising a 4:6 mixture of Freon 11 and Freon 12. Thus, the solubility of the dispersants in the propellant, the dispersibility of fine particles, the cohesiveness of fine particles, and variation in the amount delivered were examined.
Among the aforesaid test items, the solubility of a dispersant in the propellant was evaluated by placing 90 mg of the dispersant in a transparent container made of polyethylene terephthalate (hereinafter referred to as PET), attaching a valve thereto, injecting the propellant (i.e., a 4:6 mixture of Freon 11 and Freon 12) thereinto until the contents amounted to 12.0 g, shaking the container vigorously, and then observing the contents with the naked eye. […]

SMILES: CCCc1c(OCc2cccn3c(=O)c(-c4nnn[nH]4)cnc23)ccc(C(C)=O)c1O [AS-35, 9-[(4-acetyl-3-hydroxy-2-n-propylphenoxy)methyl]-3-(1H-tetrazol-5-yl)-4H-pyrido[1,2-a]pyrimidin-4-one]
- solubility in commonly used propellants [1]: entirely insoluble
- solubility (solubility in water): 0.4 µg/mL (≈ 0.951 µM)

SMILES: CCCc1c(OCc2cccn3c(=O)c(CC(=O)O)cnc23)ccc(C(C)=O)c1O [AS-148, [9-(4-acetyl-3-hydroxy-2-n-propylphenoxymethyl)-4-oxo-pyrido[1,2-a]pyrimidin-3-yl]-acetic acid]
- results of Table 1 (dispersibility, cohesiveness with conventional dispersants) [2]: exactly the same results as AS-35
